According to US20090048328A1, “Compound Comprising Prodigiosin From Serratia Macescence B-1231 Kctc 0386Bp for Prevention and Treatment of Acute Graft-Versus-Host Disease” (priority 2005, published 2009):
“Also recorded” adds a separate entry of the source.

Experiments:
[1] = system: acute graft-versus-host disease; assay: Mouse survival in acute graft-versus-host disease after bone marrow transplantation; assay type: in vivo, Balb/c mouse; conditions: 1 mg/kg, peritoneal injections every other day
Excerpt: (§1) To induce acute graft-versus-host disease, bone marrow cells (5×10^7 cells) and spleen cells (1×10^7 cells) of the C57BL/6 mouse were transplanted to the Balb/c mouse, which had been irradiated and had lost immune function.

[2] = system: acute graft-versus-host disease; assay type: in vivo, Balb/c mouse; conditions: 1 mg/kg, peritoneal injections every other day; weight loss from 2nd to 6th day, regain from 7th day; control mice lost weight up to 9th day and died
Excerpt: as §1

T-cells [3] = assay: ConA-induced T-cell proliferation, [3H]-thymidine incorporation; assay type: cell-based, C57BL/6 mouse; conditions: 1 μg/ml ConA; 3, 10, 30 ng/ml compound
Protocol: (§2) T-cells were separated from the spleen of the C57BL/6 mouse for the experiment. 1 μg/ml concanavalin A (ConA) was used to generate the proliferation of T-cells, and 1 μg/ml lypopolysaccaride induced proliferation of the B-cells. The prodigiosin separated in Execution Example 1 was melted in dimethyl sulfoxide (DMSO) and was added to the culture medium in a manner to achieve a final concentration of 3, 10, 30 ng/ml. After 60 hours of cultivation, [^3H]-thymidine was added to the culture medium with a concentration of 1 μCi/well. After 12 hours, the cells were collected and the amount of radioactivity in the DNA was measured.
T-cells were separated from the spleen of the C57BL/6 mouse for the experiment. 1 μg/ml ConA and 10 unit/ml IL-2 were used to generate the proliferation of T-cells. In the control group, 1 μg/ml ConA induced the proliferation of T-cells. […] After 12 hours, the cells were collected and the amount of radioactivity in the DNA was measured.
T-cells were separated from the spleen of the C57BL/6 mouse for the experiment. […] After 12 hours, the cells were collected and the amount of radioactivity in the DNA was measured. […]
Prodigiosin was melted in DMSO and added to the culture medium in a manner to achieve a final concentration of 3, 10, 30 ng/ml. […] After 12 hours, the cells were collected and the amount of radioactivity in the DNA was measured. […]

B-cells = assay: Lipopolysaccharide-induced B-cell proliferation, [3H]-thymidine incorporation; assay type: cell-based, C57BL/6 mouse; conditions: 1 μg/ml lipopolysaccharide; 3, 10, 30 ng/ml compound
Protocol: as §2

IL-2 mRNA = assay: Expression of IL-2 mRNA in ConA-activated T-cells, RT-PCR; assay type: cell-based, C57BL/6 mouse; conditions: 1 μg/ml ConA, 4 hours, 3, 10, 30 ng/ml compound
Protocol: T-cells were separated from the spleen of the C57BL/6 mouse for the experiment. 1 μg/m ConA was used to activate the T-cells. […]. After 4 hours of cultivation, the cells were collected. After separating the RNA from the cells, the degree of expression of IL-2 mRNA was measured through RT-PCR (reverse transcription-polymerase chain reaction).

[4] = system: IL-2 receptors (IL-2R alpha); assay: Expression of IL-2 receptor (IL-2R alpha) mRNA in ConA-activated T-cells, RT-PCR; assay type: cell-based, C57BL/6 mouse; conditions: 1 μg/ml ConA, 4 hours, 3, 10, 30 ng/ml compound
T-cells [5] = assay: T-cell proliferation induced by ConA plus added IL-2, [3H]-thymidine incorporation; assay type: cell-based, C57BL/6 mouse; conditions: 1 μg/ml ConA and 10 unit/ml IL-2; 3, 10, 30 ng/ml compound
Protocol: (§3) T-cells were separated from the spleen of the C57BL/6 mouse for the experiment. 1 μg/ml ConA and 10 unit/ml IL-2 were used to generate the proliferation of T-cells. In the control group, 1 μg/ml ConA induced the proliferation of T-cells. Prodigiosin was melted in DMSO and added to the culture medium in a manner to achieve a final concentration of 3, 10, 30 ng/ml. After 60 hours of cultivation, [^3H]-thymidine was added to the culture medium with a concentration of 1 μCi/well. After 12 hours, the cells were collected and the amount of radioactivity in the DNA was measured.
as §3, with “Prodigiosin was melted in DMSO and added to the culture medium in a manner to achieve a final concentration of 3, 10, 30 ng/ml.” left out

IL-2 dependent T-cells = assay: IL-2-dependent T-cell proliferation (ConA pre-treated cells), [3H]-thymidine incorporation; assay type: cell-based, C57BL/6 mouse; conditions: cells pre-treated with 1 μg/ml ConA 48 hours, washed, 10 unit/ml IL-2; 3, 10, 30 ng/ml compound
Protocol: (§4) In order to measure IL-2 dependent T-cell proliferation, T-cells separated from the spleen of the mouse were treated with 1 μg/ml ConA for 48 hours. Then, the cells were washed three times to get rid of all ConA for further experiment. […] 10 unit/ml IL-2 was added to the pre-treated cells to induce T-cell proliferation (IL-2-dependent T cell proliferation).
Prodigiosin was melted in DMSO and added to the culture medium in a manner to achieve a final concentration of 3, 10, 30 ng/ml. After 60 hours of cultivation, [^3H]-thymidine was added to the culture medium with a concentration of 1 μCi/well. After 12 hours, the cells were collected and the amount of radioactivity in the DNA was measured.
as §4, with “all the” for “all”, “T-cell” for “T cell”
After 60 hours of cultivation, [^3H]-thymidine was added to the culture medium with a concentration of 1 μCi/well. After 12 hours, the cells were collected and the amount of radioactivity in the DNA was measured.

With `CCCCCC1=C/C(=C/c2[nH]c(-c3ccc[nH]3)cc2OC)N=C1C` [prodigiosin] the “Balb/c mice died six days after the cell transplantation” value ([1]; control group 50% died by day 6) was 35%, the “mice survived through to the end of the experiment” value ([1]; observed for 14 days, all control mice died by the 10th day) was 65% and the “changes in weight of the mice” value [2] was “recovered normal weight by the 14th day”. For the same molecule, the “effect on proliferation of T-cells induced by ConA” value (T-cells [3]) was “selectively suppressed the proliferation of T-cells; also recorded: suppressed T-cells proliferated by ConA”, the “effect on proliferation of B-cells” value (B-cells) was “could not suppress the proliferation of B-cells” and the “effect on expression of IL-2 mRNA” value (IL-2 mRNA) was “did not influence the expression of IL-2 mRNA”. For the same molecule, the “effect on expression of IL-2 receptor mRNA” value [4] was “efficiently suppressed the expression of IL-2 mRNA”, the “effect of added IL-2 on the suppression of T-cell proliferation” value (T-cells [5]) was “did not suppress the excessive amount of IL-2 that was added from the outside” and the “effect on IL-2-dependent T-cell proliferation” value (IL-2 dependent T-cells) was “did not suppress the T-cell proliferation by IL-2”.
